{"source": "patent EP4674947A1", "about": "“YEAST MUTANT STRAIN WITH HIGH GLYCOLIPID PRODUCTIVITY” (KAO CORPORATION, priority 2024, dated 2025)", "origin": "cited, not measured here", "conditions": "decreased from 72.8 mN/m; sophorolipid produced by Starmerella bombicola"}
{"substance": "Sophorolipid", "values": [{"measurement": "surface tension of water decreased to", "result": 30, "unit": "mN/m"}]}
